In PubChem BioAssay AID296 (DTP/NCI, 2004):
“And” between values parts separate entries of the source, which are not always exact repeats. Equal entries are not always repeated. Results filed as inconclusive are left out.

Test system: MX-1 breast xenograft, nude mice, tumor weight T/C
Experiment: NCI In Vivo Anticancer Drug Screen. Data for tumor model Human Mammary Carcinoma MX-1 Xenograft (intrarenal inoculation) in NU/NU Swiss (nude) mice
Conditions: endpoint: mean tumor weight change, higher = larger tumour
In short: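 Tumor-bearing mice were treated with test compound alongside a vehicle-treated control group. Survival or tumor size was measured, and activity is expressed as the treated-group value divided by the control-group value.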

[1] = dose: 150.0 mg/kg/injection, schedule: Q04DX003 (sc), vehicle: saline

SMILES: CC1OC(=O)C(C(C)C)NC(=O)C(C(C)C)OC(=O)C(C(C)C)NC(=O)C(C)OC(=O)C(C(C)C)NC(=O)C(C(C)C)OC(=O)C(C(C)C)NC(=O)C(C)OC(=O)C(C(C)C)NC(=O)C(C(C)C)OC(=O)C(C(C)C)NC1=O (stereo not given)
- T/C (dose: 2.5 mg/kg/injection, schedule: Q01DX010 (sc), vehicle: saline with Tween-80): 84 % of control
- T/C (dose: 5.0 mg/kg/injection, schedule: Q01DX010 (sc), vehicle: saline with Tween-80): 150 % of control
- T/C (dose: 10.0 mg/kg/injection, schedule: Q01DX010 (sc), vehicle: saline with Tween-80): 95 % of control and 112 % of control

SMILES: O=CNCO
- T/C (dose: 300.0 mg/kg/injection, schedule: Q01DX010 (sc), vehicle: water): 111 % of control
- T/C (dose: 600.0 mg/kg/injection, schedule: Q01DX010 (sc), vehicle: water): 62 % of control
- T/C (dose: 1200.0 mg/kg/injection, schedule: Q01DX010 (sc), vehicle: water): 37 % of control
- T/C (dose: 2000.0 mg/kg/injection, schedule: Q01DX010 (sc), vehicle: water): 5 % of control

SMILES: C=C1C(=O)OCC1C(=O)O (stereo not given)
- T/C (dose: 50.0 mg/kg/injection, schedule: Q04DX003 (sc), vehicle: suspension in saline): 74 % of control
- T/C (dose: 100.0 mg/kg/injection, schedule: Q04DX003 (sc), vehicle: suspension in saline): 94 % of control
- T/C (dose: 200.0 mg/kg/injection, schedule: Q04DX003 (sc), vehicle: suspension in saline): 50 % of control

SMILES: O=c1cc(CCl)[nH]nc1CCl
- T/C (dose: 50.0 mg/kg/injection, schedule: Q01DX010 (sc), vehicle: saline with Tween-80): 77 % of control
- T/C (dose: 100.0 mg/kg/injection, schedule: Q01DX010 (sc), vehicle: saline with Tween-80): 42 % of control

SMILES: Ic1ncnc2c1ncn2C1CCCO1 (stereo not given)
- T/C (dose: 50.0 mg/kg/injection, schedule: Q04DX003 (sc), vehicle: Klucel (hydroxypropylcellulose) (HPC)): 84 % of control
- T/C (dose: 200.0 mg/kg/injection, schedule: Q04DX003 (sc), vehicle: Klucel (hydroxypropylcellulose) (HPC)): 97 % of control
- T/C (dose: 400.0 mg/kg/injection, schedule: Q04DX003 (sc), vehicle: Klucel (hydroxypropylcellulose) (HPC)): 123 % of control

SMILES: c1ccc2c(c1)[As]=c1ccccc1=[As]2 (stereo not given)
- T/C [1]: 116 % of control
- T/C (dose: 300.0 mg/kg/injection, schedule: Q04DX003 (sc), vehicle: saline): 118 % of control
- T/C (dose: 600.0 mg/kg/injection, schedule: Q04DX003 (sc), vehicle: saline): 99 % of control

SMILES: COc1cc2cc3c4cc(OC)c(OC)cc4cc[n+]3c(C)c2cc1OC (tested in a mixture with another compound)
- T/C (dose: 75.0 mg/kg/injection, schedule: Q04DX003 (sc), vehicle: saline): 79 % of control
- T/C [1]: 60 % of control
